Test results as given in US11098058B2, “Bicyclic ketone compounds and methods of use thereof” (Genentech, Inc., priority 2017, dated 2021).
pKi: −log10 of the molar value.

These molecules were tested against human RIP1 kinase domain (2-375) (Homo sapiens (Human), UniProt Q13546) (assay: biochemical). Conditions: RIP1 kinase inhibition, tight-binding apparent Ki, 50 nM enzyme, 50 μM ATP, 2 hours incubation.
Chain of human RIP1 kinase domain (2-375) (Q13546 2-375): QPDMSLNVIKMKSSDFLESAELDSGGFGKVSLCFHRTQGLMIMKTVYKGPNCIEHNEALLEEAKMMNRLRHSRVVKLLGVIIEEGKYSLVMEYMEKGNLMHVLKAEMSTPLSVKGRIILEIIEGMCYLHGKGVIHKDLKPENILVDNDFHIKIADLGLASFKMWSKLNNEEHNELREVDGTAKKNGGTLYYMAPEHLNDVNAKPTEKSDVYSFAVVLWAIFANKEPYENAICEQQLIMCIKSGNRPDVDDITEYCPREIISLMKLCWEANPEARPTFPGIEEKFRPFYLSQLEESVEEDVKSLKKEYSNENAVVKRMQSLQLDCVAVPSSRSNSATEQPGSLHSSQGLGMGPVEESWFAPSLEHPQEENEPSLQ
Procedure: RIP1 Kinase Inhibition Assays (Biochemical Assay)
The ability of the receptor interacting protein kinase (RIPK1) to catalyze the hydrolysis of adenosine-5′-triphosphate (ATP) is monitored using the Transcreener ADP (adenosine-5′-diphosphate) assay (BellBrook Labs). Purified human RIP1 kinase domain (2-375) (50 nM) derived from a baculovirus-infected insect cell expression system is incubated with test compounds for 2 hours in 50 mM Hepes buffer (pH 7.5) containing 30 mM MgCl2, 1 mM dithiothreitol, 50 μM ATP, 0.002% Brij-35, and 0.5% dimethyl sulfoxide (DMSO). […] The tracer bound to the antibody is displaced by the ADP generated during the RIP1K reaction, which causes a decrease in fluorescence polarization that is measured by laser excitation at 633 nm with a FP microplate reader M1000. Fractional activity was plotted against test article concentration. Using Genedata Screener software (Genedata; Basel, Switzerland), the data were fit to the tight-binding apparent inhibition constant (Ki^app) Morrison equation [Williams, J. W. and Morrison, J. F. (1979) The kinetics of reversible tight-binding inhibition. […] The following equation was used to calculate fractional activity and Ki^app:
[formula] where [E]T and [I]T are the total concentrations of active enzyme and test article, respectively.

Compound | pKi
C[C@H]1C[C@@H]1C(=O)c1nc2n(n1)[C@H](c1ccccc1)C[C@@H]2F (mixture of isomers) [Example 75, [(5S,7S)-7-fluoro-5-phenyl-6,7-dihydro-5H-pyrrolo[1,2-b][1,2,4]triazol-2-yl]-[rac-(1S,2S)-2-methylcyclopropyl]methanone] | 8.43
N#C[C@@H]1C[C@H]1C(=O)c1nc2n(n1)[C@H](c1ccccc1)C[C@@H]2F (mixture of isomers) [Example 105, rac-(1R,2R)-2-[(5S,7S)-7-fluoro-5-phenyl-6,7-dihydro-5H-pyrrolo[1,2-b][1,2,4]triazole-2-carbonyl]cyclopropanecarbonitrile] | 7.89
O=C(c1nc2n(n1)[C@H](c1ccccc1F)CC2)C1CC1 (racemic) [Example 63, cyclopropyl-[rac-(5S)-5-(2-fluorophenyl)-6,7-dihydro-5H-pyrrolo[1,2-b][1,2,4]triazol-2-yl]methanone] | 8.00
O=C(c1cc2n(n1)[C@H](c1ccccc1)C[C@@H]2F)C1CC1 (racemic) [Example 78, cyclopropyl-[rac-(4S,6S)-4-fluoro-6-phenyl-5,6-dihydro-4H-pyrrolo[1,2-b]pyrazol-2-yl]methanone] | 7.70

Same assay, conditions: tight-binding apparent inhibition constant (Ki app, Morrison equation), 50 nM enzyme, 50 μM ATP, 2 hours incubation

Compound | pKi
O=C(Cc1ccccc1)c1nc2n(n1)[C@H](c1ccccc1)C[C@@H]2F (racemic) [Example 7, 2-phenyl-1-[rac-(5S,7S)-7-fluoro-5-phenyl-6,7-dihydro-5H-pyrrolo[1,2-b][1,2,4]triazol-2-yl]ethanone] | 7.91
CCC(=O)c1nc2n(n1)[C@@H](c1ccccc1)C[C@@H]2F (racemic) [Example 13, 1-[rac-(5R,7S)-7-fluoro-5-phenyl-6,7-dihydro-5H-pyrrolo[1,2-b][1,2,4]triazol-2-yl]propan-1-one] | 6.71
O=C(c1nc2n(n1)[C@@H](c1ccccc1)C[C@@H]2F)C1CC1 (racemic) [Example 18, cyclopropyl-[rac-(5R,7S)-7-fluoro-5-phenyl-6,7-dihydro-5H-pyrrolo[1,2-b][1,2,4]triazol-2-yl]methanone] | 6.63
CC1(C(=O)c2nc3n(n2)[C@H](c2ccccc2)C[C@@H]3F)CC1 (racemic) [Example 26, (rac-(5S,7S)-7-fluoro-5-phenyl-6,7-dihydro-5H-pyrrolo[1,2-b][1,2,4]triazol-2-yl)-(1-methylcyclopropyl)methanone] | 7.42
O=C(CC(F)(F)F)c1nc2n(n1)[C@@H](c1ccccc1)C[C@H]2F (racemic) [Example 29, 3,3,3-trifluoro-1-[rac-(5R,7R)-7-fluoro-5-phenyl-6,7-dihydro-5H-pyrrolo[1,2-b][1,2,4]triazol-2-yl]propan-1-one] | 6.87
CCC(=O)c1nc2n(n1)[C@H](c1ccccc1F)CC2 (racemic) [Example 31, 1-[rac-(5S)-5-(2-fluorophenyl)-6,7-dihydro-5H-pyrrolo[1,2-b][1,2,4]triazol-2-yl]propan-1-one] | 8.13
O=C(c1nc2n(n1)[C@H](c1ccccc1)C[C@@H]2F)C1CCCC1 (racemic) [Example 36, cyclopentyl--(rac-(5S,7S)-7-fluoro-5-phenyl-6,7-dihydro-5H-pyrrolo[1,2-b][1,2,4]triazol-2-yl)methanone] | 7.73
O=C(c1nc2n(n1)[C@@H](c1ccccc1)C[C@H]2F)C1CCC1 (racemic) [Example 43, cyclobutyl-[rac-(5R,7R)-7-fluoro-5-phenyl-6,7-dihydro-5H-pyrrolo[1,2-b][1,2,4]triazol-2-yl]methanone] | 7.92
CC(=O)c1nc2n(n1)[C@@H](c1ccccc1)C[C@H]2F (racemic) [Example 50, 1-[rac-(5R,7R)-7-fluoro-5-phenyl-6,7-dihydro-5H-pyrrolo[1,2-b][1,2,4]triazol-2-yl]ethanone] | 7.12
O=C(c1nc2n(n1)[C@H](c1ccccc1)C[C@@H]2F)C1COC1 (racemic) [Example 57, oxetan-3-yl-[rac-(5S,7S)-7-fluoro-5-phenyl-6,7-dihydro-5H-pyrrolo[1,2-b][1,2,4]triazol-2-yl]methanone] | 7.37

The next lines start with the values.

pKi | Compound
7.67 | O=C(c1ccccc1)c1nc2n(n1)[C@H](c1ccccc1)C[C@@H]2F (racemic) [Example 12, phenyl-[rac-(5S,7S)-7-fluoro-5-phenyl-6,7-dihydro-5H-pyrrolo[1,2-b][1,2,4]triazol-2-yl]methanone]
7.95 | O=C(c1nc2n(n1)[C@H](c1ccccc1)C[C@@H]2F)C1(C(F)(F)F)CC1 (racemic) [Example 14, (rac-(5S,7S)-7-fluoro-5-phenyl-6,7-dihydro-5H-pyrrolo[1,2-b][1,2,4]triazol-2-yl)-[1-(trifluoromethyl)cyclopropyl]methanone]
7.52 | CC1(C(=O)c2nc3n(n2)[C@H](c2ccccc2)C[C@@H]3F)COC1 (racemic) [Example 15, (rac-(5S,7S)-7-fluoro-5-phenyl-6,7-dihydro-5H-pyrrolo[1,2-b][1,2,4]triazol-2-yl)-(3-methyloxetan-3-yl)methanone]
7.48 | CC(C)(C#N)C(=O)c1nc2n(n1)[C@H](c1ccccc1)C[C@@H]2F (racemic) [Example 22, 3-(rac-(5S,7S)-7-fluoro-5-phenyl-6,7-dihydro-5H-pyrrolo[1,2-b][1,2,4]triazol-2-yl)-2,2-dimethyl-3-oxo-propanenitrile]
6.13 | CCC(=O)c1nc2n(n1)[C@H](c1ccccc1)[C@@H](F)C2 (racemic) [Example 32, 1-[rac-(5R,6S)-6-fluoro-5-phenyl-6,7-dihydro-5H-pyrrolo[1,2-b][1,2,4]triazol-2-yl]propan-1-one]
5.63 | O=C(c1ccccn1)c1nc2n(n1)[C@H](c1ccccc1)C[C@@H]2F (racemic) [Example 33, (rac-(5S,7S)-7-fluoro-5-phenyl-6,7-dihydro-5H-pyrrolo[1,2-b][1,2,4]triazol-2-yl)-(2-pyridyl)methanone]
7.57 | O=C(c1nc2n(n1)[C@H](c1ccccc1)C[C@@H]2F)c1cccs1 (racemic) [Example 41, (rac-(5S,7S)-7-fluoro-5-phenyl-6,7-dihydro-5H-pyrrolo[1,2-b][1,2,4]triazol-2-yl)-(2-thienyl)methanone]
8.45 | CCC(=O)c1nc2n(n1)[C@H](c1ccccc1)C[C@@H]2F (racemic) [Example 47, 1-[rac-(5S,7S)-7-fluoro-5-phenyl-6,7-dihydro-5H-pyrrolo[1,2-b][1,2,4]triazol-2-yl]propan-1-one]
7.65 | O=C(c1nc2n(n1)[C@H](c1ccccc1)C[C@@H]2F)C1(F)CC1 (racemic) [Example 53, (1-fluorocyclopropyl)-(rac-(5S,7S)-7-fluoro-5-phenyl-6,7-dihydro-5H-pyrrolo[1,2-b][1,2,4]triazol-2-yl)methanone]
6.66 | O=C(c1nc2n(n1)[C@H](c1ccccc1)C[C@@H]2F)C1C2COCC21 (mixture of isomers) [Example 56, 3-oxabicyclo[3.1.0]hexan-6-yl-[rac-(5S,7S)-7-fluoro-5-phenyl-6,7-dihydro-5H-pyrrolo[1,2-b][1,2,4]triazol-2-yl]methanone]
7.54 | O=C(c1nc2n(n1)[C@H](c1ccccc1)C[C@@H]2F)C1(CO)CC1 (racemic) [Example 58, [1-(hydroxymethyl)cyclopropyl]-[rac-(5S,7S)-7-fluoro-5-phenyl-6,7-dihydro-5H-pyrrolo[1,2-b][1,2,4]triazol-2-yl]methanone]
